The text below walks through data of patent US10624892B2, “Agent against fungal infections” (priority 2015, dated 2020).

The test system of data set [1] is Candida albicans. The data set is described as follows: Candidamycosis of mammals: intradermal Candida albicans ulceration in rabbits, topical treatment. The data set is classed as in vivo. As to conditions: for Complete cure by day 7: scarring of the lesion by day 7, 0.1% oil (olive oil) solution applied twice a day for 7 days. As to the method: Rabbits were inoculated intradermally with a suspension of a 48-hour Candida albicans culture at a dose of 10,000 fungal cells in […] of a 0.9% sodium chloride solution. […] For the study, a 0.1% oil (olive oil) solution of the 5-[3,5-dichloro-2-hydroxybenzylidene)amino]-4-hydroxy-1H-pyrimidin-2-one salt associate with 1,2,3,4,5-pentahydroxy-6-methylaminohexane and substance I-3 were prepared. Sterile water was used as the control substance. The duration of treatment was 7 days, starting from the 1st day after ulceration. The preparations were applied with a cotton swab twice a day—in the morning and in the evening. The criterion for mycological cure was the absence of the yeast and mycelial forms of Candida, and the criterion for complete cure was the scarring of the lesion by day 7.

Data set [2] has as its system Aspergillus niger. The experiment in a line: Aspergillus pneumonia in immunodeficient mice, aerosol treatment, microbial contamination of the lungs. The data set is classed as in vivo, white mongrel mice. The following applies: for Number of colonies (in different dilutions), 10^−2: dilution 10^−2, Saburo medium. On the procedure:
The studies were conducted on white mongrel mice (females, 6-8 weeks) in Rappolovo (Leningrad region), the quarantine period was 2 weeks. To reproduce aspergillus pneumonia of the mouse, in order to create an immunodeficiency, a cyclophosphamide solution (150 mg/kg) was injected once intraperitoneally. Three days later, the mice were injected hydrocortisone (250 mg/kg), intraperitoneally, once. One day after the hydrocortisone administration the mice were infected with a suspension of Aspergillus niger (approximately 3×10^7 cell/ml) intranasally, under ether anesthesia. On the 5th day after infection, 5 animals from each group were taken to study microbial contamination of the lungs (euthanasia in rodents was performed with an overdose of ether). From the lung tissue, homogenates were prepared in which the titer of Aspergillus genus fungi was determined. Observation over the remaining mice was carried out within 14 days after infection for mortality accounting. The test solutions were injected in an aerosol chamber. In the course of the experiment, the following groups of animals were formed: • 1—spray control (K), 3 identical groups (K1, K2, K3). The animals infected with Aspergillus and receiving an aerosol of isotonic sodium chloride solution. • 2—The associate of 5-[3,5-dichloro-2-hydroxybenzylidene)amino]-4-hydroxy-1H-pyrimidin-2-one salt with 1,2,3,4,5-pentahydroxy-6-methylaminohexane, 3 identical groups (E1-3). The animals infected with Aspergillus and receiving an aerosol of 0.1% of the preparation under study. • 3. Aqueous solution of substance I-1 • 4. Aqueous solution of substance I-2 • 5. Aqueous solution of substance I-3 • 6. Aqueous solution of substance I-4 • 7. Aqueous solution of substance I-5 • 8. Aqueous solution of substance I-6 • 9. Aqueous solution of substance I-7. The animals were placed into aerosol chambers (12 l) for a period of 30 minutes, during which 500 ml of air passed through the lungs. As an aerosol generator, an ultrasonic nebulizer OMRON U1 (Japan) was used. To maintain a constant concentration of the aerosol of the preparation in the chamber, a vortex pneumatic generator in pulsed spraying mode was used to obtain a stable aerosol with a particle size of 3 m. The animals were placed into immobilization containers and exposed to the obtained aerosol for 30 minutes once a day for 3 days, starting from the first day after the infection. From the samples of homogenized lung tissues, a number of successive dilutions were prepared, followed by seeding on to Saburo medium.

For data set [3] the following is noted: cited from earlier work.
The test system of data set [4] is Leveillula taurica. The experiment in a line: Treatment of powdery mildew on begonia tuberosa by spray. The data set is classed as in vivo, Begonia tuberosa hybridum. As to the method: The study was carried out on begonia tuberosa (Begonia tuberosa hybridum), infected with powdery mildew. Powdery mildew affects many plants, including trees and shrubs. Powdery mildew affects chrysanthemums, begonias, and roses; it is manifested in appearance of a white, sometimes darkening spew on green parts of plants. The plant disease is transmitted by spores through the air. The test plants were infected with spores of the fungus (Leveillula taurica) and kept until a white spew appeared on the leaves. Three leaves on each plant were infected. After appearance of the spew, the plants of the control group (3 plants) were isolated from the 3 plants treated with a spray, which is an aqueous solution of substance I-3. The treatment was performed once in a day for 3 and 7 days. After completion of the treatment, the observation over the plants was continued for another 3 weeks. During the observation, an increase in the amount of spew representing the fungal mycelium was registered in the control plants and the number of affected leaves increased, on average, to 7-8, while the spew covered the stems of the plants as well.

Setting [5] is: lung homogenate, 5th day after infection, aerosol 30 minutes once a day for 3 days.

Consider `CNCC(O)C(O)C(O)C(O)CO.O=c1nc(O)c(N=Cc2cc(Cl)cc(Cl)c2O)c[nH]1` [associate of 5-[3,5-dichloro-2-hydroxybenzylidene)amino]-4-hydroxy-1H-pyrimidin-2-one salt with 1,2,3,4,5-pentahydroxy-6-methylaminohexane, reference compound], for which the “Complete cure by day 7” value in data set [1] is “Absent”. Also, the “Number of colonies (in different dilutions), 10^−2” value in data set [2] (setting [5]) was 12 col. Besides, in data set [2] (lung homogenate, 5th day after infection, dilution 10^−4, Saburo medium, aerosol 30 minutes once a day for 3 days), the “Number of colonies (in different dilutions), 10^−4” value worked out at 2 col. Further, in data set [3] (oil solutions), the “solubility in oil solutions” value was “up to 0.3%”. Besides, the solubility in water in data set [3] (water) was ≤ 0.4%.

With `Cc1[nH]c(=O)[nH]c(=O)c1N=Cc1ccc([N+](=O)[O-])cc1.[Na]` [Substance I-1, 2,4-dioxo-5-(4-nitrobenzylidene)amino-6-methyl-1,3-pyrimidine sodium salt], the “Number of colonies (in different dilutions), 10^−2” value in data set [2] (setting [5]) is recorded as 5 col.

`Cc1[nH]c(=O)[nH]c(=O)c1N=Cc1cc(Cl)cc(Cl)c1O.[Na]` [Substance I-3, 2,4-dioxo-5-(2-hydroxy-3,5-dichlorobenzylidene) amino-6-methyl-1,3-pyrimidine sodium salt]: the “Presence of mycelium of fungi in the smear, 5 day” value in data set [1] (5 day, 0.1% oil (olive oil) solution applied twice a day) is “no growth”. Besides, the “overall effect of treatment” value in data set [1] (conclusion from Table 3) is given as “positive effect is achieved”. In data set [1], the “Complete cure by day 7” value is given as “Achieved”. Besides, the “overall antifungal effectiveness among tested agents” value in data set [2] (conclusion from Table 2) is given as “most effective antifungal agent”. Moreover, the “Number of colonies (in different dilutions), 10^−2” value in data set [2] (setting [5]) was 2 col. Besides, in data set [4] (aqueous solution spray once in a day for 3 and 7 days, observation for another 3 weeks), the “increase or spread of the fungus to other parts of the plant” value is given as “no increase or spread of the fungus to other parts of the plant was recorded”. The “growth of the fungi when flushed from the leaf and plated on a nutrient medium” value in data set [4] (flush from treated leaf, nutrient medium) was “no growth of the fungi was recorded”.
